Reference: US20050187181A1 (University of Maryland, priority 2004, published 2005)
Entries after “also recorded” stand apart in the source; their conditions may differ. Like-named read-outs stand apart in the source and are kept apart here.

Tests used:
[1] = test system: septic shock induced by cecal ligation and puncture (CLP); conditions: cited from earlier work
Na/K ATPase = Na/K ATPase assay (86Rb uptake into red blood cells);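 also: washed human red blood cells in K-free Ringer, test agent preincubated 20 min, then 86Rb uptake over 4 h at 37 °C counted as CPM per tube versus water control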
Protocol: Human red blood cells of any group-type were donated for research by the Blood Bank of the University Of Maryland, School of Medicine. Five ml of red cells are washed 3 times in 40 ml of Potassium free Ringers solution (141 mM NaCl, 1 mM H2NaPO4, 0.5 mM CaCl2, 1 mM MgSO4, 4.5 mM glucose, 10 mM HEPES pH7.4). 50 μl of washed red cells are added to 220 μl of potassium free Ringers solution. 30, 10, 3 or 1 μl of ultra-filtrate, HPLC (high performance liquid chromatography) fraction, or adenosine, inosine, guanosine, deoxyadenosine, deoxyguanosine, caffeine, aminophylline, dipyridamole, NBTI, 6thioinosine, 6thioguanosine, or EHNA (all in buffer) is added to the mixture and incubated for 20 min. 4 μCi of 86RbCl is added and incubated for 4 hrs at 37° C. The mixture is than washed three times with 4° C. Potassium free Ringers solution and the cells counted in a gamma counter (Packard, Cobra II). Na/K ATPase activity is expressed as the CPM (counts per minute) (CPM/tube*4 hrs). The effects of ultra-filtrate or HPLC fractions on ^86Rb uptake into red cells are compared to equal volumes of either water (control) or, in some cases, 0.01 mM Ouabain (maximal inhibition).

[2] = test system: rats in severe hemorrhagic shock; conditions: for survival compared to saline and cytidine controls (Kaplan-Meier): single dose of 2.5 mM in saline, 8 rats/group, p<0.001
Protocol: Pentobarbital-anesthetized rats were subjected to severe hemorrhagic shock. Five groups of eight rats were resuscitated.
Plasma K^+ was measured from plasma taken before hemorrhage, before resuscitation and 0.5 hrs after resuscitation using a K^+ electrode (Jenco Electronics, Inc., San Diego, Calif.). Survival time between groups was compared by Kaplan-Meier survival Analysis.

[3] = human blood; cited from earlier work
[4] = test system: rat in endotoxic shock (LPS); test: Endotoxic shock (LPS 10 mg/kg iv) with intravenous inosine infusion; format: in vivo
Protocol: Pentobarbital-anesthetized (50 mg/kg) rats (380-420 g) had cannulas placed in their femoral artery and vein. Arterial Blood pressure was monitored via the femoral artery cannula. After 15 minutes of stabilization, the rats were injected with 10 mg/kg of lipopolysaccharide (LPS, Sigma Aldrich, serotype 026:B6) in saline via the femoral vein. At the same time, an infusion of saline or inosine (5 mM) in saline or no infusion was begun (5 ml/hr) via the femoral vein cannula. A 5 mM solution of inosine is […]. Arterial pressure and heart rate were monitored throughout the procedure. Survival time was recorded. Supplemental doses (15 mg/kg) of pentobarbital were given via the femoral vein cannula every hour. Rats surviving beyond 8.5 hr had their cannulas removed and were allowed to recover from pentobarbital anesthesia. These rats lived till 48 hours at which time we terminated the experiment. Inosine was administered at a rate of 1.34 mg/ml at 5 ml/hour for 5 hours which is a total of 33.5 mg for 5 hours. In 400 gram rats that is a total of about 83.75 mg/kg over the 5 hour period; 16.75 mg/hr or 402 mg/day.

[5] = water; cited from earlier work
[6] = test system: murine model of colitis (DSS); conditions: cited from earlier work
[7] = test system: lipopolysaccharide-induced shock; conditions: cited from earlier work

Compound: OC[C@H]1O[C@@H](n2cnc3c(O)ncnc32)[C@H](O)[C@@H]1O [inosine]
- organ damage ([1]; 100 mg/kg IP x3): significantly reduced
- survival ([1]; 100 mg/kg IP x3): significantly improved
- mortality ([1]; post-treatment protocol, 100 mg/kg IP x3, at 24 hours): about 20%
- mortality ([1]; post-treatment protocol, at 120 hours): about 90%
- mortality ([1]; post-treatment protocol, by 48 hours): about 80%
- mortality ([1]; pre-treatment protocol, 100 mg/kg IP x3, by 24 hours): 15%
- mortality ([1]; pre-treatment protocol, by 48 hours): about 70%
- mortality ([1]; pre-treatment protocol, by 120 hours): about 75%
- relative effectiveness at stimulating Na/K ATPase (Na/K ATPase; 10^-3 Molar (FIG. 8)): both equally effective
- stimulation of Na/K ATPase (Na/K ATPase; human red blood cells, dose response (FIG. 3b, FIG. 8)): stimulated Na/K ATPase in a dose-dependent manner
- stimulation of Na/K ATPase in the presence of ouabain (Na/K ATPase; partial inhibition / sub maximal doses of ouabain (FIG. 9)): overcame partial inhibition by ouabain
- bradycardia on resuscitation from hemorrhagic shock ([2]; 2.5 mM in saline): did not cause the bradycardia
- time to 50% mortality ([2]; 2.5 mM in saline): about 100 minutes
- time to 100% mortality ([2]; 2.5 mM in saline): about 150 minutes
- effect on shock-elevated plasma K^+ ([2]; 2.5 mM in saline, 0.5 hr): lowered the shock-elevated plasma K^+
- Plasma K^+ 0.5 hr after Resuscitation ([2]; 2.5 mM in saline, mean ± SE, N = 7/group): 2.93 ± 0.21 mM
- adverse effects on resuscitation from hemorrhagic shock ([2]; rat, in vivo): without any adverse effects
- survival compared to saline and cytidine controls (Kaplan-Meier) [2]: survived significantly longer
- survival compared to saline and cytidine controls (Kaplan-Meier) ([2]; listed as Inosine): survived significantly longer than saline or cytidine controls; also recorded: significantly increased survival
- half life [3]: < 1 s
- survival compared to saline or no-resuscitation groups (Kaplan-Meier) ([4]; continuous infusion 5 ml/hr of 5 mM for 5 hrs): survived significantly longer than the saline or no-resuscitation groups
- survival / success in resuscitating rats fully ([4]; iv infusion 5 mM, 5 ml/hr, 5 hours, observed to 48 hours): 100%
- solubility [5]: highly soluble in water
- mortality ([6]; oral inosine from day one, by day 30): 60%
- protection of colon ([6]; oral inosine): protected the colon from DSS induced inflammatory cell infiltration and lipid peroxidation
- mortality ([7]; single IP 100 mg/kg 30 minutes before LPS 70 mg/kg IP, at 36 hours): 19%
- mortality ([7]; single IP 100 mg/kg before LPS, at 60 hours): 37.5%
- mortality ([7]; single IP 100 mg/kg before LPS, by 96 hours): 50%
- survival compared to untreated mice ([7]; single IP 100 mg/kg before LPS): prolonged survival compared to untreated mice
